Test systems include NCI-H23; SK-MEL-5; COLO 205; SF-268; MDA-MB-435; KM12; Malme-3M; LOX IMVI; SF-295; KM-20L2; SF-539; A498; SK-MEL-2; OVCAR-8; MDA-N; RXF 393; HCC 2998; HT-29; TK-10; SK-OV-3.
Holding throughout (assay): growth of human tumour cells (NCI), 48 h

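Cells were grown in 96-well plates and exposed to each compound for 48 hours at five concentrations; endpoints were interpolated linearly between bracketing concentrations, or set to the highest concentration if not reached. Here, GI50 denotes the concentration required for 50% inhibition of growth.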 Calls of active or inactive are those of the source. Cut-off read from the data, not from the text of the source: active = GI50 up to about 1.1 µM and inactive = higher. Where only a bound is given, the exact number is not on record here.

Regarding `CC[C@@H](C)[C@H]([C@H](CC(=O)N1CCC[C@@H]1[C@@H](OC)[C@H](C)C(=O)N[C@H](Cc1ccccc1)c1nccs1)OC)N(C)C(=O)[C@H](NC(=O)[C@@H](C(C)C)N(C)C)C(C)C`, the GI50 is 0.000224 µM (active) in the experiment with NCI-H23; 2.51e-05 µM (active) with SK-MEL-5; 7.13e-05 µM (active) in the experiment with COLO 205; 0.00039 µM (active) in the experiment on SF-268; < 0.01 µM (active) in the experiment on MDA-MB-435; 1.67e-05 µM (active) in the experiment with KM12. Further, the GI50 in the experiment with Malme-3M was 0.000624 µM (active); with LOX IMVI it was 0.000161 µM (active); in the experiment with SF-295 it was 0.000146 µM (active); with KM-20L2 it was 6.79e-05 µM (active); in the experiment with SF-539, 0.000168 µM (active); with A498 it was 0.000228 µM (active). Also, the GI50 was 0.000125 µM (active) in the experiment on SK-MEL-2; 0.000286 µM (active) with OVCAR-8; < 0.01 µM (active) with MDA-N; 0.000191 µM (active) with RXF 393; 0.00029 µM (active) in the experiment with HCC 2998; 2.24e-05 µM (active) with HT-29. The GI50 in the experiment on TK-10 was 0.00181 µM (active).

`CCCCCCCCCCCCCCCCCCOCC(COP(=O)([O-])OCC[N+](C)(C)C)OC` (configuration not stated) [EDELFOSINE]: the GI50 was 41.6 µM (inactive) with NCI-H23; 41.8 µM (inactive) with SK-MEL-5; 2.65 µM (inactive) in the experiment with COLO 205; 17.2 µM (inactive) in the experiment on SF-268; 98.4 µM (inactive) in the experiment on MDA-MB-435; 5.09 µM (inactive) in the experiment with KM12. The GI50 in the experiment on Malme-3M was 29.6 µM (inactive); in the experiment on LOX IMVI it was 15.4 µM (inactive); in the experiment on SF-295, 9.66 µM (inactive); in the experiment on SK-OV-3 it was 18.2 µM (inactive); in the experiment with KM-20L2 it was 2.9 µM (inactive); with SF-539 it was > 58.5 µM (inactive). Besides, the GI50 is 19.8 µM (inactive) in the experiment on A498; 31.3 µM (inactive) in the experiment with SK-MEL-2; 32.1 µM (inactive) with OVCAR-8; > 69.3 µM (inactive) in the experiment on MDA-N; 13.9 µM (inactive) with RXF 393; 2.38 µM (inactive) in the experiment on HCC 2998. In addition, the GI50 is 7.28 µM (inactive) in the experiment on HT-29 and 19 µM (inactive) in the experiment on TK-10.

`O=C1c2ccccc2C(=O)c2sc(Nc3ccccc3Cl)nc21`: the GI50 was 4.98 µM (inactive) in the experiment on NCI-H23; 5.87 µM (inactive) in the experiment with SK-MEL-5; 14.6 µM (inactive) with COLO 205; 9.29 µM (inactive) with SF-268; 15 µM (inactive) in the experiment with KM12; 14.2 µM (inactive) with Malme-3M. The GI50 with LOX IMVI is 2.6 µM (inactive); with SF-295, 16.1 µM (inactive); in the experiment with SK-OV-3, 19.5 µM (inactive); with KM-20L2, 20.7 µM (inactive); in the experiment with SF-539, 15.8 µM (inactive); in the experiment on A498, 16.2 µM (inactive). Further, the GI50 in the experiment on SK-MEL-2 is 13.6 µM (inactive); in the experiment with OVCAR-8, 5.85 µM (inactive); in the experiment on MDA-N, 2.41 µM (inactive); in the experiment with RXF 393 it was 16.4 µM (inactive); with HCC 2998 it was 18.5 µM (inactive); in the experiment with HT-29 it was 21.5 µM (inactive). The GI50 with TK-10 is 19.7 µM (inactive).

`COC(=O)N/N=C(/c1nc2ccc([N+](=O)[O-])cc2nc1O)C(O)c1ccc(OC)c(OC)c1` (configuration not stated): the GI50 in the experiment on NCI-H23 was > 76.7 µM (inactive); with SK-MEL-5, 29.8 µM (inactive); with COLO 205, 39.4 µM (inactive); in the experiment with SF-268, > 81.1 µM (inactive); with MDA-MB-435, > 100 µM (inactive); with KM12, 49.9 µM (inactive). Also, the GI50 in the experiment on Malme-3M is > 100 µM (inactive); in the experiment with LOX IMVI, 28.5 µM (inactive); in the experiment with SF-295 it was 98.6 µM (inactive); in the experiment on SK-OV-3, > 100 µM (inactive); in the experiment with KM-20L2, > 100 µM (inactive); in the experiment with SF-539, > 100 µM (inactive). For the same molecule, the GI50 with A498 is > 67.8 µM (inactive); with SK-MEL-2 it was > 100 µM (inactive); in the experiment on OVCAR-8, > 100 µM (inactive); in the experiment on MDA-N, > 100 µM (inactive); with RXF 393, > 100 µM (inactive); in the experiment on HCC 2998 it was > 100 µM (inactive). In addition, the GI50 was > 72.9 µM (inactive) in the experiment with HT-29 and > 100 µM (inactive) in the experiment on TK-10.

`CC1OC(CC(=O)O)Cc2c(O)c3c(c(O)c21)C(=O)C=C(C1=CC(=O)c2c(O)c4c(c(O)c2C1=O)CC(CC(=O)O)OC4C)C3=O` (configuration not stated): the GI50 is 17.6 µM (inactive) in the experiment with NCI-H23; 16.4 µM (inactive) in the experiment on SK-MEL-5; 5.28 µM (inactive) in the experiment with COLO 205; 32 µM (inactive) with SF-268; 39.1 µM (inactive) in the experiment with KM12; 14.5 µM (inactive) with Malme-3M. Besides, the GI50 with LOX IMVI was 16.5 µM (inactive); with SF-295, 88.7 µM (inactive); in the experiment on SK-OV-3, > 100 µM (inactive); in the experiment with KM-20L2, 22.2 µM (inactive); in the experiment on SF-539, 19.1 µM (inactive); in the experiment on A498, 18.9 µM (inactive). For the same molecule, the GI50 was 21.2 µM (inactive) in the experiment on SK-MEL-2; 23.4 µM (inactive) with OVCAR-8; 6.14 µM (inactive) in the experiment with RXF 393; 46.3 µM (inactive) in the experiment with HCC 2998; 18.5 µM (inactive) with HT-29; 57.9 µM (inactive) in the experiment with TK-10.

Take `CN(C)CCN(C)CC1COC(C)(C)O1` (configuration not stated): the GI50 in the experiment on NCI-H23, in the experiment on SK-MEL-5, in the experiment on COLO 205, in the experiment on SF-268, in the experiment on KM12 and with Malme-3M was > 100 µM (inactive) each time. Also, the GI50 in the experiment on LOX IMVI, in the experiment on SF-295, in the experiment on SK-OV-3, in the experiment on KM-20L2, in the experiment on SF-539 and in the experiment with A498 was > 100 µM (inactive) throughout. The GI50 in the experiment with SK-MEL-2, in the experiment on OVCAR-8, in the experiment with RXF 393, in the experiment on HCC 2998, in the experiment with HT-29 and in the experiment with TK-10 was > 100 µM (inactive) in each case.

With `O=C1C=C(Nc2ccc(Cl)cc2C(=O)c2ccccc2)c2ccccc2C1=O`, the GI50 in the experiment with NCI-H23, in the experiment with SK-MEL-5, in the experiment on COLO 205, in the experiment with SF-268, in the experiment with KM12 and in the experiment on Malme-3M was > 100 µM (inactive) in each case. The GI50 in the experiment on LOX IMVI, with SF-295, in the experiment on SK-OV-3, in the experiment with KM-20L2, in the experiment with SF-539 and in the experiment on A498 was > 100 µM (inactive) each time. In addition, the GI50 in the experiment with SK-MEL-2, in the experiment on OVCAR-8, in the experiment on RXF 393, with HCC 2998, with HT-29 and in the experiment with TK-10 was > 100 µM (inactive) in each case.

The values are drawn from ChEMBL document CHEMBL1201862, “PubChem BioAssay data set” (2004).
